Reference: the SangsterLogP compilation

Assays:
[1] = method code SF-AS, from DOI: 10.1002/qua.560100722
[2] = method code SF, from PMID: 26783178
[3] = method code HPLC, from DOI: 10.1016/j.bmcl.2004.01.062, PMID: 15026043; conditions: pH 5.5
[4] = method code SF-HPLC, from DOI: 10.1021/jm00169a024, PMID: 2194033; conditions: pH 7.4
[5] = method code SF-AS, from DOI: 10.1016/0006-2952(90)90117-4, PMID: 2344368; conditions: pH 7.5
[6] = not given; remark: listed apart in the source
[7] = not given; remark: listed apart in the source
[8] = method code SF-GLC, from Park, Y.; Park, S. (2000). Determination and prediction of octanol/water partition coefficients and air-water partition coefficients for environmental toxic chemicals. 11(7)773-779.
[9] = not given; remark: listed apart in the source
[10] = method code HPLC, from DOI: 10.1016/j.ejmech.2015.05.022, PMID: 26005028; conditions: pH 7.1
[11] = method code SF, from DOI: 10.1016/0378-5173(85)90077-8
[12] = method code SF-GLC, from DOI: 10.1021/jm00240a002, PMID: 1151965
[13] = not given; remark: listed apart in the source
[14] = method code SF-FL, from DOI: 10.1016/0006-2952(96)00248-1, PMID: 8687500
[15] = method code SF-HPLC, from DOI: 10.1016/j.bmcl.2004.01.062, PMID: 15026043; conditions: pH 5.5
[16] = not given; remark: listed apart in the source
[17] = not given; remark: listed apart in the source
[18] = method code SF-RC, from DOI: 10.1002/ps.2780190203
[19] = method code SF-GLC, from DOI: 10.1016/0043-1354(83)90068-4
[20] = not given; remark: listed apart in the source
[21] = method code SF, from DOI: 10.1016/0006-2952(91)90449-f, PMID: 1930261; conditions: pH 2.0
[22] = not given; remark: listed apart in the source
[23] = method code SF-HPLC, from DOI: 10.1023/a:1015956705293, PMID: 3244625

COc1cccc2c1C(=O)c1c(O)c3c(c(O)c1C2=O)C[C@@](O)(C(C)=NNC(=O)c1ccccc1)C[C@@H]3O[C@H]1C[C@H](N)[C@H](O)[C@H](C)O1
logD ([1]; pH 8.8): 0.76

COc1cccc2c1C(=O)c1c(O)c3c(c(O)c1C2=O)CC(O)(C(C)=O)CC3OC1CC(NC(=O)CN)C(O)C(C)O1 (stereo not drawn)
logD ([1]; pH 7.8): 0.64

Cc1ccc(N2C(=O)[C@H](CCCNS(=O)(=O)c3ccc(OC(F)(F)F)cc3)[C@H]2c2ccc(NS(=O)(=O)c3ccc(C)cc3)cc2)cc1
logP [2]: 3.78

CCOC(=O)C(Cc1ccc(OC(=O)N(C)C)cc1)NC(=O)C1N(S(=O)(=O)c2cnn(C)c2)CSC1(C)C (stereo not drawn)
logD [3]: 2.14

CCN1CC(C(O)C(CC2CCCCC2)NC(=O)[C@H](Cc2cnc[nH]2)NC(=O)[C@H](Cc2ccc(OC)cc2)NC(=O)N(C)CC(O)CO)OC1=O (stereo partly drawn)
logD [4]: 1.42

COc1ccc(CC2C(=O)NC(C)C(=O)N(C)C3Cc4ccc(cc4)Oc4cc(ccc4OC(C)=O)CC(C(=O)NC(C)C(=O)NC(C)C(=O)N2C)N(C)C3=O)cc1 (stereo not drawn)
logP: 3.19

COc1cccc2c1C(=O)c1c(O)c3c(c(O)c1C2=O)CC(O)(C(C)=O)CC3OC1CC(O)C(O)C(C)O1 (stereo not drawn)
logD [5]: 1.34

CC(C)N1C=CCC(C(=O)OC2CCC3C4CCc5cc(O)ccc5C4CC23C)=C1 (stereo not drawn)
logP [6]: 4.6

Cc1cc(C(=O)N2Cc3ccc(C(=O)N(C)CCF)n3Cc3ccccc32)ccc1-c1ccccc1C(F)(F)F
logP [7]: 5.2

C1CCOC1
logP [8]: 0.5

C=CC(=O)OC
logP [9]: 0.74

COc1cccc2c1C(=O)c1c(O)c3c(c(O)c1C2=O)CC(O)(C(C)=O)CC3OC1CC(NC(=O)CN(C)C)C(O)C(C)O1 (stereo not drawn)
logD ([1]; pH 7.8): 1.26

CC(=O)OC[C@H]1O[C@@H](OC(C)=O)[C@H](NC(=O)CBr)[C@@H](OC(C)=O)[C@@H]1OC(C)=O
logD [10]: 0.23

CCCCCC(=O)OCC(=O)[C@@]1(O)CC[C@H]2[C@@H]3CCC4=CC(=O)CC[C@]4(C)[C@H]3C(=O)C[C@@]21C
logP [11]: 3.3

FC(F)OC(F)(F)C(F)Cl (stereo not drawn)
logP [12]: 2.1

Cc1cccc2c1OP(=O)(OCC1OC(n3cc(/C=C/Br)c(=O)[nH]c3=O)CC1OC(=O)C1CCCN1)OC2 (stereo not drawn)
logP [13]: -0.4

C=CCCN1C=CCC(C(=O)OC2CCC3C4CCc5cc(O)ccc5C4CC23C)=C1 (stereo not drawn)
logP [6]: 3.96

COc1cccc2c1C(=O)c1c(O)c3c(c(O)c1C2=O)CC(O)(C(C)=O)CC3OC1CC(NC(C)=O)C(O)C(C)O1 (stereo not drawn)
logD [5]: 1.85

COc1ccc(CC2C(=O)NC(C)C(=O)N(C)C3Cc4ccc(cc4)Oc4cc(ccc4O)CC(C(=O)NC(C)C(=O)NC(C)C(=O)N2C)N(C)C3=O)cc1 (stereo not drawn)
logP: 2.72

CCCCCCCC(=O)OCC(=O)[C@@]1(O)CC[C@H]2[C@@H]3CCC4=CC(=O)CC[C@]4(C)[C@H]3[C@@H](O)C[C@@]21C
logP [11]: 4.37

CN(C)C(=O)Oc1ccc(CC(NC(=O)C2N(S(=O)(=O)c3cnn(C)c3)CSC2(C)C)C(=O)OCOC(=O)C(C)(C)C)cc1 (stereo not drawn)
logD [3]: 3.14

COc1cccc2c1C(=O)c1c(O)c3c(c(O)c1C2=O)C[C@@](O)(C(C)=O)C[C@@H]3O[C@H]1C[C@H](NC(=O)CCCNC(=O)[C@@H]2O[C@H](C(=O)O)[C@@H](O)[C@H](O)[C@H]2O)[C@H](O)[C@H](C)O1
logP [14]: -2

Cc1cccc2c1OP(=O)(OCC1OC(n3cc(C=CBr)c(=O)[nH]c3=O)CC1OC(=O)C(C)C)OC2 (stereo not drawn)
logP [13]: 2.4

CN(C)C(=O)Oc1ccc(CC(C(=O)OCC(C)(C)C)C(=O)C2N(S(=O)(=O)c3cnn(C)c3)CSC2(C)C)cc1 (stereo not drawn)
logD [15]: 3.42

COc1ccnnc1
logP [16]: 0.24

O=C(Cn1ccc2cc(C(=O)O)ccc21)Oc1ccccc1-c1ccccc1
logP [17]: 3.1

Cc1cc(OCC(=O)O)ccc1S(C)(=O)=O
logP [18]: 0.54

COc1cccc2c1C(=O)c1c(O)c3c(c(O)c1C2=O)C[C@@](O)(C(C)=O)C[C@@H]3O[C@H]1C[C@H](NC(=O)Cc2ccccc2NC(=O)[C@@H]2O[C@H](C(=O)O)[C@@H](O)[C@H](O)[C@H]2O)[C@H](O)[C@H](C)O1
logP [14]: -1.1

BrC=C(Br)Br
logP [19]: 3.2

Cc1ccc(N2C(=O)C(CCCNS(=O)(=O)c3ccc(OC(F)(F)F)cc3)C2c2ccc(NS(C)(=O)=O)cc2)cc1 (stereo not drawn)
logP [2]: 3.45

Cc1cc(C(=O)N2Cc3ccc(C(=O)N(CCO)CCO)n3Cc3ccccc32)ccc1-c1ccccc1CCF
logP [7]: 3.14

COCCOCCOC(=O)C(Cc1ccc(OC(=O)N(C)C)cc1)NC(=O)C1N(S(=O)(=O)c2cnn(C)c2)CSC1(C)C (stereo not drawn)
logD [15]: 1.41

CCOCC
logP [12]: 0.89

COc1cccc2c1C(=O)c1c(O)c3c(c(O)c1C2=O)C[C@@](O)(C(C)=O)C[C@@H]3O[C@@H]1C[C@@H](N(C)C)[C@@H](O)[C@@H](C)O1
logD [5]: 1.37

CCCCCC(=O)OCC(=O)[C@@]1(O)CC[C@H]2[C@@H]3CCC4=CC(=O)CC[C@]4(C)[C@H]3[C@@H](O)C[C@@]21C
logP [11]: 3.7

COc1cccc2c1C(=O)c1c(O)c3c(c(O)c1C2=O)C[C@@](O)(C(C)=O)C[C@@H]3O[C@H]1C[C@H](NC(=O)OCc2ccc(NC(=O)[C@@H]3O[C@H](C(=O)O)[C@@H](O)[C@H](O)[C@H]3O)cc2)[C@H](O)[C@H](C)O1
logP [14]: -1.7

CCN1C[C@H]([C@@H](O)[C@H](CC2CCCCC2)NC(=O)[C@@H](Cc2cnc[nH]2)NC(=O)[C@@H](Cc2ccc(OC)cc2)NC(=O)N(C)CCOCOCCOC)OC1=O
logD [4]: 2.03

NC(=O)c1ccc2c(ccn2CC(=O)Oc2ccc(-c3ccccc3)cc2)c1
logP [17]: 2.4

Nc1ncnc2nn[nH]c12
logP [20]: -0.96

O=C1NC(=O)C(=O)C(=O)N1
logD [21]: -1.86

CC(C)(C)CO
logP [22]: 1.29

CCN1CC(C(O)C(CC2CCCCC2)NC(=O)C(Cc2cnc[nH]2)NC(=O)N(Cc2ccc(OC)cc2)C(=O)N(C)CCOCOC)OC1=O (stereo not drawn)
logD [4]: 2.3

C=CC(=O)OCC(C)(C)C
logP [9]: 2.32

Cc1cccc2c1OP(=O)(OCC1OC(n3cc(/C=C/Br)c(=O)[nH]c3=O)CC1OC(=O)C(N)C(C)C)OC2 (stereo not drawn)
logP [13]: -0.1

CCc1ccc(S(=O)(=O)NCCC[C@H]2C(=O)N(c3ccc(C)cc3)[C@@H]2c2ccc(NS(=O)(=O)c3ccc(C)cc3)cc2)cc1
logP [2]: 3.9

O=C1NC(=O)C(O)C(=O)N1
logD [21]: -1.85

CC(=O)CC(C)C
logP [8]: 1.4

O=c1[nH]cnc2c1ncn2[C@@H]1O[C@H](CO)[C@@H](O)[C@H]1O
logP [20]: -1.81

C[C@]12CCC(=O)C=C1CC[C@@H]1[C@@H]2[C@@H](O)C[C@@]2(C)[C@H]1CC[C@]2(O)C(=O)COC(=O)CCC(N)=O
logP [23]: 1.43

CN1C=CCC(C(=O)O[C@H]2CC[C@H]3[C@@H]4CCc5cc(O)ccc5[C@H]4CC[C@]23C)=C1
logP [6]: 4.52

c1ccnnc1
logP [16]: -0.15

COc1ccc(CC2C(=O)NC(C)C(=O)N(C)C3Cc4ccc(cc4)Oc4cc(ccc4OC)CC(C(=O)NC(C)C(=O)NC(C)C(=O)N2C)N(C)C3=O)cc1 (stereo not drawn)
logP: 3.17

OCCBr
logP [22]: 0.29

COC(=O)CCCCCC(=O)OCC(=O)C1(O)CCC2C3CCC4=CC(=O)CCC4(C)C3C(O)CC21C (stereo not drawn)
logP [23]: 3.7

C[C@]12CCC(=O)C=C1CC[C@@H]1[C@@H]2[C@@H](O)C[C@@]2(C)[C@H]1CC[C@]2(O)C(=O)COC(=O)CCCCCC(N)=O
logP [23]: 2.3

Cc1cc(C(=O)N2Cc3ccc(C(=O)N(CCO)CCF)n3Cc3ccccc32)ccc1-c1ccccc1C(F)(F)F
logP [7]: 4.89

BrC1CCCCC1
logP [19]: 3.2

O=c1ccc(O)n[nH]1
logP [18]: -0.63
